In publication PMC9133015 (Nature Communications, 2022):
Where “and” joins values, the source holds several entries; their conditions need not be identical. Identical values can stand only once.

Tests used:
Experiment in all cases: Kinase inhibitor specificity profiling (Reaction Biology Corporation)
Type in all cases: biochemical
Set-up in all cases: % Enzyme Activity (relative to DMSO controls): concentration or dose not given beside the values
[1] = biological target: T1, panel of 370 protein kinases (Homo sapiens, UniProt P54756); settings: kinase EPHA5
T1 construct: purchased Reaction Biology Corporation (assay service)
T1 sequence (P54756 25-1037): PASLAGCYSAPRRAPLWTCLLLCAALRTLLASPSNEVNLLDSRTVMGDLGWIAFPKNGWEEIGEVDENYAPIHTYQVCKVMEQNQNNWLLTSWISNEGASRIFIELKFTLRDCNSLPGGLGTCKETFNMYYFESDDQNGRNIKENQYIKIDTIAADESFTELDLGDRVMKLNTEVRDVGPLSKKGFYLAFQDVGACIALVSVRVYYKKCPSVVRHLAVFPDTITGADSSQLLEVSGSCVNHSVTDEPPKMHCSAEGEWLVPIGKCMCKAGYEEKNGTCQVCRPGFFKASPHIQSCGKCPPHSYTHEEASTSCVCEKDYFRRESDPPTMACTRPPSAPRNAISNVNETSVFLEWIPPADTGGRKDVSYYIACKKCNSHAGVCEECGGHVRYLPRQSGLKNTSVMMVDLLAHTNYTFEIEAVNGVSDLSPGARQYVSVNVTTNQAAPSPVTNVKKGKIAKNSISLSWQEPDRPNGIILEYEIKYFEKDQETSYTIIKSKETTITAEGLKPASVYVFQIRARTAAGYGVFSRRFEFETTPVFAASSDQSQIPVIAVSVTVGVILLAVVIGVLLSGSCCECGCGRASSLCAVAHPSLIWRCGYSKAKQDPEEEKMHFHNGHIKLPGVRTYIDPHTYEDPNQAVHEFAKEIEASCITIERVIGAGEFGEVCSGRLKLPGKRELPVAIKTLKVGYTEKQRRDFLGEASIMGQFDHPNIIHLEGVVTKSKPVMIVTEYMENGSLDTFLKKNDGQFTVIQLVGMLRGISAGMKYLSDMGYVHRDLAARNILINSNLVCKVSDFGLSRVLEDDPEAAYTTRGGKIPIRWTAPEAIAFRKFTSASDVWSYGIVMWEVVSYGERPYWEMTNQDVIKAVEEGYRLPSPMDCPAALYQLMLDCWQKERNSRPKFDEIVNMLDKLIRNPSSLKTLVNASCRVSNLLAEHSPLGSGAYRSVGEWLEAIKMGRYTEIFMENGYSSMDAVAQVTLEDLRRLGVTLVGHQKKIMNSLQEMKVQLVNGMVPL

[2] = biological target: T2, panel of 370 protein kinases (Homo sapiens, UniProt Q9Y572); settings: 2 h, kinase RIPK3; read-out: % Enzyme Activity (relative to DMSO controls)
T2 construct: purchased Reaction Biology Corporation (assay service)

[3] = biological target: T3, panel of 370 protein kinases (Homo sapiens, UniProt Q15831); settings: 2 h, kinase LKB1; read-out: % Enzyme Activity (relative to DMSO controls)
T3 construct: purchased Reaction Biology Corporation (assay service)

[4] = biological target: T4, panel of 370 protein kinases (Homo sapiens, UniProt Q9Y5S2); settings: 2 h, kinase MRCKb/CDC42BPB; read-out: % Enzyme Activity (relative to DMSO controls)
T4 construct: purchased Reaction Biology Corporation (assay service)

[5] = biological target: T5, panel of 370 protein kinases (Homo sapiens, UniProt Q9BWU1); settings: kinase CDK19/cyclin C
T5 construct: purchased Reaction Biology Corporation (assay service)
T5 sequence (Q9BWU1 whole entry): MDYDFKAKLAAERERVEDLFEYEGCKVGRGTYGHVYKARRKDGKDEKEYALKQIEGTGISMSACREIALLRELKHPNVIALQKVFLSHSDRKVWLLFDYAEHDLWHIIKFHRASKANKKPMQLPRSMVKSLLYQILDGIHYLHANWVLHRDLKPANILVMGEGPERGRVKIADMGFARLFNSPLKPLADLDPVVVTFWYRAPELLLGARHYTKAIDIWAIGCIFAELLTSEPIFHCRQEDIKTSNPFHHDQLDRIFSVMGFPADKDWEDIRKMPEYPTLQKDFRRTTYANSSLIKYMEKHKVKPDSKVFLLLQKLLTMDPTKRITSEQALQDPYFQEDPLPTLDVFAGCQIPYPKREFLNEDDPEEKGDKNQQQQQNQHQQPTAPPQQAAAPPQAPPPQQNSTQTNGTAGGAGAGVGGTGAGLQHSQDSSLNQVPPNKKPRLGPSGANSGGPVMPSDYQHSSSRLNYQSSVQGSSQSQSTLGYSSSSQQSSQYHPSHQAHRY

[6] = biological target: T6, panel of 370 protein kinases (Homo sapiens, UniProt Q16620); settings: 2 h, kinase TRKB; read-out: % Enzyme Activity (relative to DMSO controls)
T6 construct: purchased Reaction Biology Corporation (assay service)

[7] = biological target: T7, panel of 370 protein kinases (Homo sapiens, UniProt P53671); settings: 2 h, kinase LIMK2; read-out: % Enzyme Activity (relative to DMSO controls)
T7 construct: purchased Reaction Biology Corporation (assay service)
T7 sequence (P53671 whole entry): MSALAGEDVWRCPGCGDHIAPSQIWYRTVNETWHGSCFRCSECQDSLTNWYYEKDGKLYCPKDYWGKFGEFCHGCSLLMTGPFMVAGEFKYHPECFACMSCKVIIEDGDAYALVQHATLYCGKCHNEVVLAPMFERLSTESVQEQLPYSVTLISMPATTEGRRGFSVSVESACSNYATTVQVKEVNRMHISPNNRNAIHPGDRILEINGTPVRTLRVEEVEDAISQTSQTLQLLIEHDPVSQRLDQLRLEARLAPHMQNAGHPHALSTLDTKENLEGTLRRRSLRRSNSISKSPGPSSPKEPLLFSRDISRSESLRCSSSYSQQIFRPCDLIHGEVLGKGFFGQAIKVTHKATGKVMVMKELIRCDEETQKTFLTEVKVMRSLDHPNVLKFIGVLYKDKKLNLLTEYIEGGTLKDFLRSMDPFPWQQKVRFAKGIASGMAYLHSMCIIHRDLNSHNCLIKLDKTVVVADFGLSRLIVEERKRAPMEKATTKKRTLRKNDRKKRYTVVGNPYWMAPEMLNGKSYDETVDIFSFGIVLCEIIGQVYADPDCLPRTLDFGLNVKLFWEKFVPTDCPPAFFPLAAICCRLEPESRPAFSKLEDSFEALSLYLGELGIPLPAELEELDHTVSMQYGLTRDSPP

[8] = biological target: T8, panel of 370 protein kinases (Homo sapiens, UniProt Q15569); settings: 2 h, kinase TESK1; read-out: % Enzyme Activity (relative to DMSO controls)
T8 construct: purchased Reaction Biology Corporation (assay service)

[9] = biological target: T9, panel of 370 protein kinases (Homo sapiens, UniProt Q9BYP7); settings: 2 h, kinase WNK3; read-out: % Enzyme Activity (relative to DMSO controls)
T9 construct: purchased Reaction Biology Corporation (assay service)
T9 sequence (Q9BYP7 whole entry): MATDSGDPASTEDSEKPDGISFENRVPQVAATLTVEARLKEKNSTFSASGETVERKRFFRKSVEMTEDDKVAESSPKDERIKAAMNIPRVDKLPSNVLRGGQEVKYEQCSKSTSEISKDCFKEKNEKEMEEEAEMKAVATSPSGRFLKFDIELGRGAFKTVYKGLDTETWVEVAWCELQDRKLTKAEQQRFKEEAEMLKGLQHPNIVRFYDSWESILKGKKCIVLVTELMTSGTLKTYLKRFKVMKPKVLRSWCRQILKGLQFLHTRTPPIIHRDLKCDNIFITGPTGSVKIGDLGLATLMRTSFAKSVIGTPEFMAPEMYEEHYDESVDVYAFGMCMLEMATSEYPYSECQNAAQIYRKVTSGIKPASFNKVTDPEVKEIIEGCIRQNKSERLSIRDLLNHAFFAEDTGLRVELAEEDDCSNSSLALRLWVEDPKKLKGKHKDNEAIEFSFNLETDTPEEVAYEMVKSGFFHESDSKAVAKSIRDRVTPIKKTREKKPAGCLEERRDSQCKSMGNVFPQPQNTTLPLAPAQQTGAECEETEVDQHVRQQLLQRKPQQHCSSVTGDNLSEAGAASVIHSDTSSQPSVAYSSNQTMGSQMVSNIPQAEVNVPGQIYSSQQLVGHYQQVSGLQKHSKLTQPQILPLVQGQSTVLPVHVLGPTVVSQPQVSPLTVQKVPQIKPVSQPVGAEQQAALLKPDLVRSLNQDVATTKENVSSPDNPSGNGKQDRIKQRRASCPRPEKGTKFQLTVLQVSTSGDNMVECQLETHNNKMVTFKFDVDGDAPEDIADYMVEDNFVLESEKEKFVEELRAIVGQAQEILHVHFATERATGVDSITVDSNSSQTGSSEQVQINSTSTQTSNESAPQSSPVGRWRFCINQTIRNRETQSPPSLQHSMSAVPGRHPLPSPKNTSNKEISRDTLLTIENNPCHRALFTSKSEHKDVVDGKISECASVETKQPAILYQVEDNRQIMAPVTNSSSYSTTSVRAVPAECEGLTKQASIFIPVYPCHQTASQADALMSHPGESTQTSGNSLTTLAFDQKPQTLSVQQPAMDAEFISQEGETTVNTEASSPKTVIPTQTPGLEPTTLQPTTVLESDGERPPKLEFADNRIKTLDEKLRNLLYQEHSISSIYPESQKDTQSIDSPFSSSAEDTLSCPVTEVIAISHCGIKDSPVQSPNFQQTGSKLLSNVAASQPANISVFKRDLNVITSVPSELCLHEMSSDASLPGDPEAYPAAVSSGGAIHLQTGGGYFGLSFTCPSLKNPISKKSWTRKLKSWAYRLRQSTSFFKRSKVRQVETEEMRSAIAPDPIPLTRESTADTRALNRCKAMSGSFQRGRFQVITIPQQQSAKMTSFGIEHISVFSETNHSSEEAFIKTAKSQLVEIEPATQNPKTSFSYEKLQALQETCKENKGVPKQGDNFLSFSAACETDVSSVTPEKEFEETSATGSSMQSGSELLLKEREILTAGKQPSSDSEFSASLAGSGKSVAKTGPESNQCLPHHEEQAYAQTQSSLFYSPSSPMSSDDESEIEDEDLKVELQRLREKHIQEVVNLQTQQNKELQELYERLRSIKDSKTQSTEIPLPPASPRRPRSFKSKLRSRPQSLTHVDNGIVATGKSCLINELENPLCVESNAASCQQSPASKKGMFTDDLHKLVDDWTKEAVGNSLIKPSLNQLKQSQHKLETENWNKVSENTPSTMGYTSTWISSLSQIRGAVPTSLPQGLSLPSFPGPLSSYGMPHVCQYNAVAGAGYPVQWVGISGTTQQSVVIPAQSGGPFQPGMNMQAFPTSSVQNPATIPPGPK

[10] = biological target: T10, panel of 370 protein kinases (Homo sapiens, UniProt O96017); settings: 2 h, kinase CHK2; read-out: % Enzyme Activity (relative to DMSO controls)
T10 construct: purchased Reaction Biology Corporation (assay service)
T10 sequence (O96017 whole entry): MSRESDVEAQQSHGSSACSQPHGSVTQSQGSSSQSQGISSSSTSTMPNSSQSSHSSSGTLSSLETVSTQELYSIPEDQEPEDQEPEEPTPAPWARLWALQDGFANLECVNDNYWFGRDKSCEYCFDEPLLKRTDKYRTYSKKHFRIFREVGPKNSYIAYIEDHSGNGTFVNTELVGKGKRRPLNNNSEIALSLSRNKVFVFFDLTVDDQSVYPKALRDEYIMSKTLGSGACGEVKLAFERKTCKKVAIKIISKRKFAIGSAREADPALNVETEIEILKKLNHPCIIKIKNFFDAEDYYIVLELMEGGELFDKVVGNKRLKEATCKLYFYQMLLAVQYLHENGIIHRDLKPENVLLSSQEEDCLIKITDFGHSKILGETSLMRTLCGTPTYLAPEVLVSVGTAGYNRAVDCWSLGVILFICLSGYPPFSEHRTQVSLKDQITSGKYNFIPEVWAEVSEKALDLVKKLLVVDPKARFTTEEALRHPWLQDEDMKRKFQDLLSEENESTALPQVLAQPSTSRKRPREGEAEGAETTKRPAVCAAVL

[11] = biological target: T11, panel of 370 protein kinases (Homo sapiens, UniProt Q13237); settings: 2 h, kinase PKG2/PRKG2; read-out: % Enzyme Activity (relative to DMSO controls)
T11 construct: purchased Reaction Biology Corporation (assay service)

[12] = biological target: T12, panel of 370 protein kinases (Homo sapiens, UniProt Q9Y4K4); settings: 2 h, kinase KHS/MAP4K5; read-out: % Enzyme Activity (relative to DMSO controls)
T12 construct: purchased Reaction Biology Corporation (assay service)

[13] = biological target: T13, panel of 370 protein kinases (Homo sapiens, UniProt O75582); settings: 2 h, kinase MSK1/RPS6KA5; read-out: % Enzyme Activity (relative to DMSO controls)
T13 construct: purchased Reaction Biology Corporation (assay service)

[14] = biological target: T14, panel of 370 protein kinases (Homo sapiens, UniProt Q16644); settings: 2 h, kinase MAPKAPK3; read-out: % Enzyme Activity (relative to DMSO controls)
T14 construct: purchased Reaction Biology Corporation (assay service)

[15] = biological target: T15, panel of 370 protein kinases (Homo sapiens, UniProt Q5S007); settings: 2 h, kinase LRRK2; read-out: % Enzyme Activity (relative to DMSO controls)
T15 construct: purchased Reaction Biology Corporation (assay service)

[16] = biological target: T16, panel of 370 protein kinases (Homo sapiens, UniProt Q9NR20); settings: 2 h, read-out: % Enzyme Activity (relative to DMSO controls), kinase DYRK4
T16 construct: purchased Reaction Biology Corporation (assay service)
T16 sequence (Q9NR20 whole entry): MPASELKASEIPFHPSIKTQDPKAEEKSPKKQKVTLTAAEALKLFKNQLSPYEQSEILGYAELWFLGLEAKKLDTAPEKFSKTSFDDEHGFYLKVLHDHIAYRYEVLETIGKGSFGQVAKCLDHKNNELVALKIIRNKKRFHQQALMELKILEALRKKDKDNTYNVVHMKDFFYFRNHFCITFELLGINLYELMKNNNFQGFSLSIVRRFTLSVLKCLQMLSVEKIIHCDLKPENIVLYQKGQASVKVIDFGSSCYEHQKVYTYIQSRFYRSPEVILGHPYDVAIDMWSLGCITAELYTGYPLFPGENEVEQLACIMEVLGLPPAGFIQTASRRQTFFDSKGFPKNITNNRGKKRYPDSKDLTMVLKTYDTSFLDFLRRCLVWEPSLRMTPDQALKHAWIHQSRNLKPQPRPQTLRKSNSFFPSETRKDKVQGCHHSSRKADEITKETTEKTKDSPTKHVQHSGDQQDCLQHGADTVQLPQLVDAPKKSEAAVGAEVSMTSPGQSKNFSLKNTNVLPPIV

[17] = biological target: T17, panel of 370 protein kinases (Homo sapiens, UniProt Q13627); settings: 2 h, kinase DYRK1/DYRK1A; read-out: % Enzyme Activity (relative to DMSO controls)
T17 construct: purchased Reaction Biology Corporation (assay service)

`CCN1CCN(C(=O)c2ccc(Nc3ncc(F)c(-c4ccc5nc(N(C)C)sc5c4)n3)nc2)CC1` [YK-2-69] was tested, and the “% Enzyme Activity (relative to DMSO controls)” value [1] was 97.73% and 95.85%, the remaining activity at 1 µM [2] was 102% and the remaining activity at 1 µM [3] was 111%. For the same compound, the remaining activity at 1 µM [4] was 105%, the “% Enzyme Activity (relative to DMSO controls)” value [5] was 59.42% and 58.05% and the remaining activity at 1 µM [6] was 88.6%. It also gave a remaining activity at 1 µM [7] of 95%, a remaining activity at 1 µM [8] of 108% and a remaining activity at 1 µM [9] of 98.9%. The remaining activity at 1 µM [10] was 97.6%, the remaining activity at 1 µM [11] was 94.6% and the remaining activity at 1 µM [12] was 101%. It also gave a remaining activity at 1 µM [13] of 115%, a remaining activity at 1 µM [14] of 116% and a remaining activity at 1 µM [15] of 72%. The remaining activity at 1 µM [16] was 50% and the remaining activity at 1 µM [17] was 61.3%.
